Test results taken from patent US10202367B2, “Heterocyclic compounds and methods of use thereof” (priority 2014, dated 2019).

test: Aqueous solubility in PBS; type: physicochemical; details: not given

**Q.** Which “Sol.” value does the source give for `Cc1cc(C)cc(-c2nc(CN3CCC(C(=O)NCCCN4C[C@H](C)C[C@H](C)C4)CC3)c(C)o2)c1` [Compound 4] here?
**A.** The value was over 71.0 µg/mL.

**Q.** With `Cc1ccccc1-c1nc(CN2CCC(C(=O)NCCCN3CCC(C(C)C)CC3)CC2)c(C)o1` [Compound 5] as the molecule, how does the “Sol.” value read?
**A.** The value was over 71.0 µg/mL.

**Q.** With `Cc1ccccc1-c1nc(CN2CCC(C(=O)NCCCN3CCCC(C)C3)CC2)c(C)o1` (stereo not shown) [Compound 6] as the molecule, how does the “Sol.” value read?
**A.** The value was over 67.0 µg/mL.

**Q.** Which “Sol.” value does the source give for `Cc1ccccc1-c1nc(CN2CCC(C(=O)NCCCN3CCCCC3)CC2)c(C)o1` [Compound 9] here?
**A.** The value was over 65.0 µg/mL.

**Q.** For `Cc1ccccc1-c1nc(CN2CCC(C(=O)NCCCN3CCC(C)CC3)CC2)c(C)o1` [Compound 10], which “Sol.” value is on record?
**A.** Its value is over 67.0 µg/mL.

**Q.** For `Cc1ccccc1-c1nc(CN2CCC(C(=O)NCCCN3CCOCC3)CC2)c(C)o1` [Compound 12], which “Sol.” value is on record?
**A.** The value was over 65.0 µg/mL.

**Q.** Which “Sol.” value does the source give for `Cc1ccccc1-c1nc(CN2CCC(C(=O)N3CCN(C4CCN(C)CC4)CC3)CC2)c(C)o1` [Compound 13] here?
**A.** Its value is over 71.0 µg/mL.

**Q.** With `Cc1ccccc1-c1nc(CN2CCC(C(=O)N3CCN(CCN(C)C)CC3)CC2)c(C)o1` [Compound 14] as the molecule, how does the “Sol.” value read?
**A.** Its value is over 67.0 µg/mL.

**Q.** For `Cc1oc(-c2ccccc2Cl)nc1CN1CCC(C(=O)NCCCN2C[C@H](C)C[C@H](C)C2)CC1` [Compound 15], which “Sol.” value is on record?
**A.** Its value is over 72.0 µg/mL.

**Q.** With `Cc1oc(-c2ccc(Cl)cc2)nc1CN1CCC(C(=O)NCCCN2C[C@H](C)C[C@H](C)C2)CC1` [Compound 16] as the molecule, how does the “Sol.” value read?
**A.** Its value is over 72.0 µg/mL.

**Q.** With `CCc1ccccc1-c1nc(CN2CCC(C(=O)NCCCN3C[C@H](C)C[C@H](C)C3)CC2)c(C)o1` [Compound 17] as the molecule, how does the “Sol.” value read?
**A.** Its value is 55.9 µg/mL.

**Q.** For `Cc1cccc(-c2nc(CN3CCC(C(=O)NCCCN4C[C@H](C)C[C@H](C)C4)CC3)c(C)o2)c1` [Compound 18], which “Sol.” value is on record?
**A.** The value was over 69.0 µg/mL.

**Q.** Which “Sol.” value does the source give for `Cc1ccc(-c2nc(CN3CCC(C(=O)NCCCN4C[C@H](C)C[C@H](C)C4)CC3)c(C)o2)cc1` [Compound 19] here?
**A.** The value was over 69.0 µg/mL.

**Q.** Which “Sol.” value does the source give for `Cc1ccccc1-c1nc(CN2CCC(C(=O)NCCN3C[C@H](C)C[C@H](C)C3)CC2)c(C)o1` [Compound 20] here?
**A.** The value was over 67.0 µg/mL.

**Q.** For `Cc1ccccc1-c1nc(CN2CCC(C(=O)NCCCCN3C[C@H](C)C[C@H](C)C3)CC2)c(C)o1` [Compound 21], which “Sol.” value is on record?
**A.** The value was over 71.0 µg/mL.

**Q.** With `Cc1ccc(-c2nc(CN3CCC(C(=O)NCCCN4C[C@H](C)C[C@H](C)C4)CC3)c(C)o2)cc1C` [Compound 22] as the molecule, how does the “Sol.” value read?
**A.** The value was over 71.0 µg/mL.

**Q.** For `Cc1cccc(C)c1-c1nc(CN2CCC(C(=O)NCCCN3C[C@H](C)C[C@H](C)C3)CC2)c(C)o1` [Compound 23], which “Sol.” value is on record?
**A.** Its value is 55.9 µg/mL.

**Q.** With `Cc1oc(-c2cccc(Cl)c2)nc1CN1CCC(C(=O)NCCCN2C[C@H](C)C[C@H](C)C2)CC1` [Compound 24] as the molecule, how does the “Sol.” value read?
**A.** The value was over 72.0 µg/mL.

**Q.** With `Cc1ccccc1-c1nc(CN2CCC(C(=O)NCCCN3C[C@H](C)C[C@H](C)C3)CC2)c(C)o1` [Compound 25] as the molecule, how does the “Sol.” value read?
**A.** Its value is over 69.0 µg/mL.

**Q.** For `Cc1ccccc1-c1nc(CN2CCC(C(=O)NCCCN3C[C@H](C)C[C@H](C)C3)CC2)c(C)o1` [Compound 26], which “Sol.” value is on record?
**A.** The value was over 69.0 µg/mL.

**Q.** With `Cc1ccccc1-c1nc(CN2CCC(C(=O)NCCCN3C[C@H](C)C[C@H](C)C3)CC2)c(C)o1` [Compound 27] as the molecule, how does the “Sol.” value read?
**A.** The value was over 69.0 µg/mL.

**Q.** Which “Sol.” value does the source give for `Cc1ccccc1-c1nc(CN2CCC(C(=O)NCCCN3C[C@H](C)C[C@H](C)C3)CC2)c(C)o1` [Compound 28] here?
**A.** Its value is 54.8 µg/mL.

**Q.** For `Cc1ccccc1-c1nc(CN2CCC(C(=O)NCCCN3C[C@H](C)C[C@H](C)C3)CC2)c(C)o1` [Compound 29], which “Sol.” value is on record?
**A.** The value was over 69.0 µg/mL.

**Q.** With `Cc1oc(-c2c(F)cccc2F)nc1CN1CCC(C(=O)NCCCN2C[C@H](C)C[C@H](C)C2)CC1` [Compound 30] as the molecule, how does the “Sol.” value read?
**A.** The value was over 72.0 µg/mL.

**Q.** Which “Sol.” value does the source give for `Cc1oc(-c2cccc3ccccc23)nc1CN1CCC(C(=O)NCCCN2C[C@H](C)C[C@H](C)C2)CC1` [Compound 31] here?
**A.** Its value is over 74.0 µg/mL.

**Q.** Which “Sol.” value does the source give for `Cc1ccc(-c2nc(CN3CCC(C(=O)NCCCN4C[C@H](C)C[C@H](C)C4)CC3)c(C)o2)c(C)c1` [Compound 32] here?
**A.** The value was over 71.0 µg/mL.

**Q.** With `Cc1oc(-c2c(F)cccc2Cl)nc1CN1CCC(C(=O)NCCCN2C[C@H](C)C[C@H](C)C2)CC1` [Compound 33] as the molecule, how does the “Sol.” value read?
**A.** The value was over 75.0 µg/mL.

**Q.** For `Cc1ccc(C)c(-c2nc(CN3CCC(C(=O)NCCCN4C[C@H](C)C[C@H](C)C4)CC3)c(C)o2)c1` [Compound 34], which “Sol.” value is on record?
**A.** Its value is 56.1 µg/mL.

**Q.** Which “Sol.” value does the source give for `Cc1oc(-c2c3ccccc3cc3ccccc23)nc1CN1CCC(C(=O)NCCCN2C[C@H](C)C[C@H](C)C2)CC1` [Compound 36] here?
**A.** Its value is 62.1 µg/mL.

**Q.** With `COc1cccc(OC)c1-c1nc(CN2CCC(C(=O)NCCCN3C[C@H](C)C[C@H](C)C3)CC2)c(C)o1` [Compound 37] as the molecule, how does the “Sol.” value read?
**A.** The value was over 76.0 µg/mL.

**Q.** For `COc1cccc(F)c1-c1nc(CN2CCC(C(=O)NCCCN3C[C@H](C)C[C@H](C)C3)CC2)c(C)o1` [Compound 38], which “Sol.” value is on record?
**A.** The value was over 74.0 µg/mL.

**Q.** For `Cc1ccc2ccccc2c1-c1nc(CN2CCC(C(=O)NCCCN3C[C@H](C)C[C@H](C)C3)CC2)c(C)o1` [Compound 39], which “Sol.” value is on record?
**A.** The value was over 76.0 µg/mL.

**Q.** With `COc1cccc(Br)c1-c1nc(CN2CCC(C(=O)NCCCN3C[C@H](C)C[C@H](C)C3)CC2)c(C)o1` [Compound 40] as the molecule, how does the “Sol.” value read?
**A.** The value was over 83.0 µg/mL.

**Q.** With `Cc1oc(-c2c(Cl)cccc2Br)nc1CN1CCC(C(=O)NCCCN2C[C@H](C)C[C@H](C)C2)CC1` [Compound 41] as the molecule, how does the “Sol.” value read?
**A.** The value was over 83.0 µg/mL.

**Q.** For `COc1cccc(Cl)c1-c1nc(CN2CCC(C(=O)NCCCN3C[C@H](C)C[C@H](C)C3)CC2)c(C)o1` [Compound 42], which “Sol.” value is on record?
**A.** The value was over 76.0 µg/mL.

**Q.** For `Cc1oc(-c2c(Cl)cccc2C(F)(F)F)nc1CN1CCC(C(=O)NCCCN2C[C@H](C)C[C@H](C)C2)CC1` [Compound 44], which “Sol.” value is on record?
**A.** Its value is 65.1 µg/mL.

**Q.** With `COc1cccc(C)c1-c1nc(CN2CCC(C(=O)NCCCN3C[C@H](C)C[C@H](C)C3)CC2)c(C)o1` [Compound 45] as the molecule, how does the “Sol.” value read?
**A.** Its value is over 73.0 µg/mL.

**Q.** Which “Sol.” value does the source give for `Cc1cccc(F)c1-c1nc(CN2CCC(C(=O)NCCCN3C[C@H](C)C[C@H](C)C3)CC2)c(C)o1` [Compound 46] here?
**A.** Its value is over 72.0 µg/mL.

**Q.** For `Cc1ccccc1-c1nc(CN2CCC(C(=O)NCCCN3C[C@H](C)C[C@@H](C)C3)CC2)c(C)o1` [Compound 47], which “Sol.” value is on record?
**A.** Its value is over 69.0 µg/mL.

**Q.** With `Cc1ccccc1-c1nc(CN2CCC(C(=O)NCCCN3CCC(C)(C)CC3)CC2)c(C)o1` [Compound 50] as the molecule, how does the “Sol.” value read?
**A.** The value was over 69.0 µg/mL.

**Q.** For `Cc1ccccc1-c1nc(CN2CCC(C(=O)NCCCN3[C@H](C)CCC[C@@H]3C)CC2)c(C)o1` [Compound 51], which “Sol.” value is on record?
**A.** Its value is over 69.0 µg/mL.

**Q.** For `Cc1ccccc1-c1nc(CN2CCC(C(=O)NCCCN3CCCC(C(C)C)C3)CC2)c(C)o1` (stereo not shown) [Compound 52], which “Sol.” value is on record?
**A.** Its value is over 71 µg/mL.

**Q.** For `Cc1ccccc1-c1nc(CN2CCC(C(=O)NCCCN3CCCC(CC(C)C)C3)CC2)c(C)o1` (stereo not shown) [Compound 53], which “Sol.” value is on record?
**A.** Its value is 54.9 µg/mL.

**Q.** Which “Sol.” value does the source give for `Cc1ccccc1-c1nc(CN2CCC(C(=O)NCCCN3CC4CCCC(C4)C3)CC2)c(C)o1` [Compound 54] here?
**A.** Its value is “> .71 µg/mL”.

**Q.** Which “Sol.” value does the source give for `Cc1cccc(Cl)c1-c1nc(CN2CCC(C(=O)NCCCN3CCCC(C)C3)CC2)c(C)o1` (stereo not shown) [Compound 59] here?
**A.** Its value is 52.6 µg/mL.

**Q.** Which “Sol.” value does the source give for `Cc1cccc(Cl)c1-c1nc(CN2CCC(C(=O)NCCCN3CCC(C)(C)CC3)CC2)c(C)o1` [Compound 60] here?
**A.** Its value is over 74 µg/mL.

**Q.** For `Cc1cccc(Cl)c1-c1nc(CN2CCC(C(=O)NCCCN3CCC(C(C)C)CC3)CC2)c(C)o1` [Compound 61], which “Sol.” value is on record?
**A.** The value was over 76 µg/mL.

same assay, conditions: pH 7.4

**Q.** With `Cc1oc(-c2c(Cl)cccc2Cl)nc1CN1CCC(C(=O)NCCCN2C[C@H](C)C[C@H](C)C2)CC1` [Compound 35] as the molecule, how does the “Sol.” value read?
**A.** The value was over 77.0 µg/mL.

**Q.** Which “Sol.” value does the source give for `Cc1oc(-c2c(Br)cccc2Br)nc1CN1CCC(C(=O)NCCCN2C[C@H](C)C[C@H](C)C2)CC1` [Compound 43] here?
**A.** The value was 62.4 µg/mL.
